Assays:
Test in all cases: relative viability (nuclei count vs DMSO), 5 days (fraction); higher = more cells survive
[1] = compound: Cn1cc(-c2cnn3c(N)c(Br)c([C@@H]4CCCNC4)nc23)cn1 + COc1cccc2cc(-c3nc([C@H]4CC[C@H](C(=O)O)CC4)n4ncnc(N)c34)[nH]c12 [OSI-027] (partner 0.5 µM)
In short: (§1)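 One day after seeding in 1536-well plates, lung cancer cell lines were dosed by pin tool. Dosing was either single-drug or a fixed anchor-drug dose plus five library-drug doses (not always all listed) in √10 steps. After 5 days, nuclei were stained in one fix-and-stain step and counted on 4× images, and relative viability is the nuclei count of treated wells over that of vehicle wells, given as the median of duplicate plates.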

[2] = compound: Cn1cc(-c2cnn3c(N)c(Br)c([C@@H]4CCCNC4)nc23)cn1 + CS(=O)(=O)CCNCc1ccc(-c2ccc3ncnc(Nc4ccc(OCc5cccc(F)c5)c(Cl)c4)c3c2)o1 [Lapatinib] (partner 2 µM)
In short: as §1

[3] = compound: Cn1cc(-c2cnn3c(N)c(Br)c([C@@H]4CCCNC4)nc23)cn1 + C[C@]1(O)C[C@@H](c2nc(-c3ccc4ccc(-c5ccccc5)nc4c3)c3c(N)nccn32)C1 [Linsitinib] (partner 1 µM)
In short: as §1

[4] = compound: Cn1cc(-c2cnn3c(N)c(Br)c([C@@H]4CCCNC4)nc23)cn1 + Cc1nc(NC(=O)N2CCC[C@H]2C(N)=O)sc1-c1ccnc(C(C)(C)C(F)(F)F)c1 [Alpelisib] (partner 2 µM)
In short: as §1

Cell Line	relative viability ([1]; first compound 0.1581 µM)	relative viability ([1]; first compound 0.5 µM)	relative viability ([1]; first compound 1.581 µM)	relative viability ([1]; first compound 5 µM)	relative viability ([2]; first compound 0.05 µM)	relative viability ([2]; first compound 0.1581 µM)	relative viability ([2]; first compound 0.5 µM)	relative viability ([2]; first compound 1.581 µM)	relative viability ([2]; first compound 5 µM)	relative viability ([3]; first compound 0.05 µM)	relative viability ([3]; first compound 0.1581 µM)	relative viability ([3]; first compound 0.5 µM)	relative viability ([3]; first compound 1.581 µM)	relative viability ([3]; first compound 5 µM)	relative viability ([4]; first compound 0.05 µM)	relative viability ([4]; first compound 0.1581 µM)	relative viability ([4]; first compound 0.5 µM)	relative viability ([4]; first compound 1.581 µM)	relative viability ([4]; first compound 5 µM)	relative viability ([1]; first compound 0.05 µM)
HCC-78	0.347	0.345	0.354	0.517	0.841	0.92	0.786	0.641	0.245	0.507	0.519	0.524	0.604	0.385	0.365	0.334	0.372	0.354	0.289	
HCC-366	1.19	0.945	0.959	0.952	1.05	1.32	0.66	0.649	0.382	0.71	0.739	0.483	0.521	0.18	0.439	0.539	0.493	0.368	0.156	1.03
HCC-827	0.907	0.71	0.715	0.705	0.234	0.197	0.196	0.178	0.152	0.934	0.958	0.947	1.05	0.953	0.992	1.04	1.03	1.06	1.06	0.731
HOP-62	1.08	0.825	0.555	0.562	1.05	1.27	1.08	0.896	0.792	1.17	1.08	0.693	0.873	0.956	1.1	0.815	0.997	0.649	1.19	0.831
IA-LM					0.927	0.624	0.581	0.44	0.225	0.666	0.867	0.653	0.544	0.37	0.757	1.05	0.574	0.591	0.589	
LC-2-ad	0.879	0.905	0.884	0.736	1.02	1.04	0.923	0.754	0.925	0.907	0.891	0.821	0.884	0.86	0.873	1.04	0.837	0.917	0.838	0.806
LCLC-97TM1	0.558	0.545	0.391	0.487	0.86	1.3	0.976	0.915	0.774	0.194	0.2	0.184	0.21	0.176	0.188	0.299	0.23	0.228	0.189	0.459
LCLC-103H	0.43	0.516	0.405	0.389						0.978	1.18	1.15	1.06	0.915	0.957	0.962	0.867	1.05	0.847	0.433
LK-2	0.162	0.172	0.179	0.168	1.01	0.878	0.823	0.757	0.605	0.548	0.446	0.51	0.369	0.317	1.07	0.945	1.11	0.618	0.595	0.146
LOU-NH91	0.711	0.684	0.727	0.701	0.785	0.694	0.761	0.713	0.619	0.963	0.868	0.929	0.899	0.734	0.721	0.664	0.695	0.658	0.561	0.752
LU99A	0.309	0.242	0.261	0.207	1.04	1.11	0.998	0.858	0.611	0.533	0.622	0.496	0.557	0.422	0.534	0.541	0.492	0.491	0.388	0.285
LXF-289	0.896	0.82	0.82	0.766	0.922	1.02	0.887	0.904	0.896	0.976	1.07	1.07	0.903	1.04	1.08	1.14	1.01	1.01	1.06	0.853
NCI-H441	0.814	0.821	0.565	0.609						0.802	0.346	0.461	0.56	0.563	0.859	1.15	0.856		0.852	0.614
NCI-H522	0.685	0.748	0.681	0.661																0.344
NCI-H1299					0.982	0.976	0.923	0.767	0.757	1.02	1.04	0.959	0.833	0.626	1.03	1.13	1.09	1.05	0.954	
NCI-H1648	0.235		0.258	0.261																0.249
NCI-H1650	0.634	0.726	0.467	0.345	0.854	0.882	0.711	0.64	0.428											
NCI-H1703					1.18	0.454	0.481	0.205	0.124	0.72	0.586	0.539	0.336	0.119	0.374	0.318	0.259	0.161	0.139	
NCI-H2170	0.801	0.687	0.649	0.653	0.26	0.252	0.289	0.282	0.286						0.865	0.764	0.654	0.705	0.88	0.759
NCI-H2342	0.632	0.585	0.526	0.593																0.52
SW 900	0.612	0.541	0.453	0.26																0.597
